Like-named read-outs stand apart in the source and are kept apart here.
Legend:
[1] = molecular target: DDR1 (Homo sapiens (Human), UniProt Q08345); assay: DDR1 binding assay (LanthaScreen Europium Kinase Binding assay)
Description: (§1) DDR1 and DDR2 binding assays were performed using Life Technologies LanthaScreen™ Europium Kinase Binding assay. The compounds were incubated with 5 nM DDR1 (Carna Biosciences) or 5 nM DDR2 (Life Technologies) for 1 h at rt in white 384-well OptiPlate (PerkinElmer), containing 20 nM or 10 nM Kinase Tracer 178 respectively and 2 nM Europium labelled anti-GST antibody (Life Technologies) in assay buffer (50 mM HEPES pH 7.5, 10 mM MgCI2, 1 mM EGTA and 0.01% BRIJ35). The ratio of fluorescence emission 665 nm/615 nm after excitation at 340 nm was obtained using the Tecan Spark 20M plate reader. IC50 values were determined in GraphPad Prism 7.0 software, using 4 parameter model: log(inhibitor) vs. response. IC50 values were converted in Ki using the Cheng-Prusoff equation (Ki=IC50/(1+[Tracer]/Kd).

[2] = molecular target: DDR2 (Homo sapiens (Human), UniProt Q16832); assay: DDR2 binding assay (LanthaScreen Europium Kinase Binding assay)
Description: as §1

[3] = 5 nM DDR1, 20 nM Kinase Tracer 178, 1 h at rt, Ki from IC50 by Cheng-Prusoff, read-out: Ki DDR1
[4] = 5 nM DDR2, 10 nM Kinase Tracer 178, 1 h at rt, Ki from IC50 by Cheng-Prusoff, read-out: Ki DDR2

Sequence of DDR1 (Q08345 19-913): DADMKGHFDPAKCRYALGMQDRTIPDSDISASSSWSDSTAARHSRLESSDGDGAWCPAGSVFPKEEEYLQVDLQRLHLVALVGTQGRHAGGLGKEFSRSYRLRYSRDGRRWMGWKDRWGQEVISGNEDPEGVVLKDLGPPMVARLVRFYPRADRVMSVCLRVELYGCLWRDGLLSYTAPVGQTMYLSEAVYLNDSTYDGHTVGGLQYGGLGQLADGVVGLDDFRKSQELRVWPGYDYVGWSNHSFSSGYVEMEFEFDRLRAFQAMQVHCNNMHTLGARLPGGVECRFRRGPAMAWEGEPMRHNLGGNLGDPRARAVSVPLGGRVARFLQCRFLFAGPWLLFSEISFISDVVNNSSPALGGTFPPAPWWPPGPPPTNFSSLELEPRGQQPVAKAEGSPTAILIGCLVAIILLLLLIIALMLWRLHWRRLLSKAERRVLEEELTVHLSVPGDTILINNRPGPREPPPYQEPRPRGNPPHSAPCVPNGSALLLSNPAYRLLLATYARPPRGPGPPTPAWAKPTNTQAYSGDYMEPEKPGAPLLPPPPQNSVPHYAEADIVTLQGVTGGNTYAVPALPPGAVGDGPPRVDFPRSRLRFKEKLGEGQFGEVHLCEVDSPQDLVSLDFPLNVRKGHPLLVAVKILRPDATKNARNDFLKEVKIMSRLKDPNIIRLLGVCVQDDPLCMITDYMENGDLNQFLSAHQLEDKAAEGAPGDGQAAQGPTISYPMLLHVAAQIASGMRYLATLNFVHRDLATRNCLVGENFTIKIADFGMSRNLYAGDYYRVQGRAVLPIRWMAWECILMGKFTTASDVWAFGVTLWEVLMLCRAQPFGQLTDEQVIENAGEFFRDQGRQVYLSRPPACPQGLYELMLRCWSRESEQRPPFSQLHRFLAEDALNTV
Sequence of DDR2 (Q16832 22-855): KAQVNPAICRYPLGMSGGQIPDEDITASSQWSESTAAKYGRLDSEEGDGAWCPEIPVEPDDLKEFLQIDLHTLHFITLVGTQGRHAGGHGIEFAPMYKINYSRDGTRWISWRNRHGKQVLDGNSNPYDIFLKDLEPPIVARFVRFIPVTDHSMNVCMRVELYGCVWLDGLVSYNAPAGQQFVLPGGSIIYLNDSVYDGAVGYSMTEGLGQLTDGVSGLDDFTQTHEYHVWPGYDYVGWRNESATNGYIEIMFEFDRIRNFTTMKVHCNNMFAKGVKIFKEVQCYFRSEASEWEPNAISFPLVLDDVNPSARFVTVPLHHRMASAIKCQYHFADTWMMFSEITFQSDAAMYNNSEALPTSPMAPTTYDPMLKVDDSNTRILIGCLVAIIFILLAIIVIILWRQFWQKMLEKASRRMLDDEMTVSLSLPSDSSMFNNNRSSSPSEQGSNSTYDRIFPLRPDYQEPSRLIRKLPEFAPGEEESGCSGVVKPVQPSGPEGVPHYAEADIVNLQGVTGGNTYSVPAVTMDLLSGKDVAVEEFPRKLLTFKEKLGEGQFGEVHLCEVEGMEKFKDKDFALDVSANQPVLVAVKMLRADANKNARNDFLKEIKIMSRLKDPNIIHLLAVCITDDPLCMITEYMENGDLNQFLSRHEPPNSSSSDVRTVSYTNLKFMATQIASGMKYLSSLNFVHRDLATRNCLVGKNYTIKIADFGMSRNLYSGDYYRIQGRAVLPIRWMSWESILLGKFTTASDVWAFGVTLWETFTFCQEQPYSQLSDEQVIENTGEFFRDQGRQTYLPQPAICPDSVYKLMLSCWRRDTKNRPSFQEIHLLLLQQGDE

Work on `Cc1ccc(C(=O)Nc2cccc(OC(F)(F)F)c2)cc1OC1CN(c2cnn3ccncc23)C1` [Example 161, 4-methyl-3-((1-(pyrazolo[1,5-a]pyrazin-3-yl)azetidin-3-yl)oxy)-N-(3-(trifluoromethoxy)phenyl)benzamide] yielded a Ki [1, 3] of less than 5 nM and a Ki [2, 4] of less than 5 nM.

`Cc1ccc(C(=O)Nc2cncc(C(F)(F)F)c2)cc1NC1CN(c2cnn3ccncc23)C1` [Example 140, 4-methyl-3-((1-(pyrazolo[1,5-a]pyrazin-3-yl)azetidin-3-yl)amino)-N-(5-(trifluoromethyl)pyridin-3-yl)benzamide] showed a Ki [1, 3] of less than 5 nM and a Ki [2, 4] of 5 to 25 nM.

Work on `Cc1ccc(C(=O)Nc2cc(C(C)(C)C)no2)cc1NC1CN(c2cnn3ccncc23)C1` [Example 149, N-(3-(tert-butyl)isoxazol-5-yl)-4-methyl-3-((1-(pyrazolo[1,5-a]pyrazin-3-yl)azetidin-3-yl)amino)benzamide] yielded a Ki [1, 3] of 5 to 25 nM and a Ki [2, 4] of 5 to 25 nM.

`Cc1ccc(C(=O)Nc2cncc(C(F)(F)F)c2)cc1NC1CN(c2cncc(-c3cnn(C)c3)c2)C1` [Example 144, 4-methyl-3-((1-(5-(1-methyl-1H-pyrazol-4-yl)pyridin-3-yl)azetidin-3-yl)amino)-N-(5-(trifluoromethyl)pyridin-3-yl)benzamide] was tested, and the Ki [1, 3] was less than 5 nM and the Ki [2, 4] was 5 to 25 nM.

With `COc1ccc(C(F)(F)F)cc1NC(=O)c1ccc(C)c(OC2CN(c3cnn4ccncc34)C2)c1` [Example 153, N-(2-methoxy-5-(trifluoromethyl)phenyl)-4-methyl-3-((1-(pyrazolo[1,5-a]pyrazin-3-yl)azetidin-3-yl)oxy)benzamide] the Ki [1, 3] was less than 5 nM and the Ki [2, 4] was 5 to 25 nM.

Work on `Cc1ccc(C(=O)Nc2cncc(C(F)(F)F)c2)cc1C1CN(c2cnn3ccncc23)C1` [Example 184, 4-methyl-3-(1-(pyrazolo[1,5-a]pyrazin-3-yl)azetidin-3-yl)-N-(5-(trifluoromethyl)pyridin-3-yl)benzamide] yielded a Ki [1, 3] of less than 5 nM and a Ki [2, 4] of 5 to 25 nM.

`Cc1ccc(C(=O)Nc2cccc(CC(F)(F)F)c2)cc1OC1CN(c2cnn3ccncc23)C1` [Example 164, 4-methyl-3-((1-(pyrazolo[1,5-a]pyrazin-3-yl)azetidin-3-yl)oxy)-N-(3-(2,2,2-trifluoroethyl)phenyl)benzamide] gave a Ki [1, 3] of less than 5 nM and a Ki [2, 4] of less than 5 nM.

`Cc1ccc(C(=O)Nc2cncc(C(F)(F)F)c2)cc1OC1CN(c2cnn3ccncc23)C1` [Example 136, 4-methyl-3-((1-(pyrazolo[1,5-a]pyrazin-3-yl)azetidin-3-yl)oxy)-N-(5-(trifluoromethyl)pyridin-3-yl)benzamide] gave a Ki [1, 3] of less than 5 nM and a Ki [2, 4] of less than 5 nM.

With `Cc1ccc(C(=O)Nc2cncc(C(F)(F)F)c2)cc1NC1CN(C(=O)c2cnn3ccncc23)C1` [Compound C1, 4-methyl-3-((1-(pyrazolo[1,5-a]pyrazine-3-carbonyl)azetidin-3-yl)amino)-N-(5-(trifluoromethyl)pyridin-3-yl)benzamide, reference compound] the Ki ([1]; same binding assay, numeric values, read-out: DDR1 Ki) was 114 nM and the Ki ([2]; same binding assay, numeric values, read-out: DDR2 Ki) was 311 nM.

For `Cc1ccc(C(=O)Nc2cncc(C(F)(F)F)c2)cc1OC1CN(c2cncnc2)C1` [Example 135, 4-methyl-3-((1-(pyrimidin-5-yl)azetidin-3-yl)oxy)-N-(5-(trifluoromethyl)pyridin-3-yl)benzamide], the Ki [1, 3] was less than 5 nM and the Ki [2, 4] was 5 to 25 nM.

“4-methyl-3-((1-(pyrimidin-5-yl)azetidin-3-yl)thio)-N-(5-(trifluoromethyl)pyridin-3-yl)benzamide [Example 177]” gave a Ki [1, 3] of 5 to 25 nM and a Ki [2, 4] of 25 to 100 nM.

`Cc1ccc(C(=O)Nc2cc(C(C)(C)C)on2)cc1OC1CN(c2cnn3ccncc23)C1` [Example 155, N-(5-(tert-butyl)isoxazol-3-yl)-4-methyl-3-((1-(pyrazolo[1,5-a]pyrazin-3-yl)azetidin-3-yl)oxy)benzamide] gave a Ki [1, 3] of less than 5 nM and a Ki [2, 4] of less than 5 nM.

In the case of `Cc1ccn2ncc(N3CC(Oc4cc(C(=O)Nc5cncc(C(F)(F)F)c5)ccc4C)C3)c2n1` [Example 167, 4-methyl-3-((1-(5-methylpyrazolo[1,5-a]pyrimidin-3-yl)azetidin-3-yl)oxy)-N-(5-(trifluoromethyl)pyridin-3-yl)benzamide], the Ki [1, 3] is reported as less than 5 nM and the Ki [2, 4] is reported as 5 to 25 nM.

With `Cc1ccc(C(=O)Nc2cncc(C(F)(F)F)c2)cc1N(C)C1CN(c2cnn3ccncc23)C1` [Example 151, 4-methyl-3-(methyl(1-(pyrazolo[1,5-a]pyrazin-3-yl)azetidin-3-yl)amino)-N-(5-(trifluoromethyl)pyridin-3-yl)benzamide] the Ki [1, 3] was less than 5 nM and the Ki [2, 4] was 5 to 25 nM.

In the case of `Cc1ccc(C(=O)Nc2cncc(C(F)(F)F)c2)cc1NC1CN(c2cnc3cnccn23)C1` [Example 147, 3-((1-(imidazo[1,2-a]pyrazin-3-yl)azetidin-3-yl)amino)-4-methyl-N-(5-(trifluoromethyl)pyridin-3-yl)benzamide], the Ki [1, 3] is reported as less than 5 nM and the Ki [2, 4] is reported as less than 5 nM.

Molecule `Cc1ccc(C(=O)Nc2cncc(C(F)(F)F)c2)cc1OC1CN(c2cnn3ccc(N4CCN(C)CC4)nc23)C1` [Example 166, 4-methyl-3-((1-(5-(4-methylpiperazin-1-yl)pyrazolo[1,5-a]pyrimidin-3-yl)azetidin-3-yl)oxy)-N-(5-(trifluoromethyl)pyridin-3-yl)benzamide] has a Ki [1, 3] of less than 5 nM and a Ki [2, 4] of 5 to 25 nM.

With `CC(=O)Nc1ccn2ncc(N3CC(Oc4cc(C(=O)Nc5cncc(C(F)(F)F)c5)ccc4C)C3)c2n1` [Example 138, 3-((1-(5-acetamidopyrazolo[1,5-a]pyrimidin-3-yl)azetidin-3-yl)oxy)-4-methyl-N-(5-(trifluoromethyl)pyridin-3-yl)benzamide] the Ki [1, 3] was less than 5 nM and the Ki [2, 4] was 5 to 25 nM.

Molecule `Cc1ccc(C(=O)Nc2cncc(C(F)(F)F)c2)cc1SC1CN(c2cnn3ccncc23)C1` [Example 178, 4-methyl-3-((1-(pyrazolo[1,5-a]pyrazin-3-yl)azetidin-3-yl)thio)-N-(5-(trifluoromethyl)pyridin-3-yl)benzamide] has a Ki [1, 3] of less than 5 nM and a Ki [2, 4] of less than 5 nM.

With `Cc1ccc(C(=O)Nc2cc(C(C)(C)C)n(C)n2)cc1NC1CN(c2cnn3ccncc23)C1` [Example 156, N-(5-(tert-butyl)-1-methyl-1H-pyrazol-3-yl)-4-methyl-3-((1-(pyrazolo[1,5-a]pyrazin-3-yl)azetidin-3-yl)amino)benzamide] the Ki [1, 3] was less than 5 nM and the Ki [2, 4] was 5 to 25 nM.

Molecule `Cc1ccc(C(=O)Nc2cncc(C(F)(F)F)c2)cc1S(=O)(=O)C1CN(c2cnn3ccncc23)C1` [Example 179, 4-methyl-3-((1-(pyrazolo[1,5-a]pyrazin-3-yl)azetidin-3-yl)sulfonyl)-N-(5-(trifluoromethyl)pyridin-3-yl)benzamide] has a Ki [1, 3] of 5 to 25 nM and a Ki [2, 4] of 25 to 100 nM.

Molecule `Cc1ccc(C(=O)Nc2cc(F)cc(C(F)(F)F)c2)cc1OC1CN(c2cnn3ccncc23)C1` [Example 162, N-(3-fluoro-5-(trifluoromethyl)phenyl)-4-methyl-3-((1-(pyrazolo[1,5-a]pyrazin-3-yl)azetidin-3-yl)oxy)benzamide] has a Ki [1, 3] of less than 5 nM and a Ki [2, 4] of less than 5 nM.

Molecule `CNc1ccn2ncc(N3CC(Oc4cc(C(=O)Nc5cncc(C(F)(F)F)c5)ccc4C)C3)c2n1` [Example 141, 4-methyl-3-((1-(5-(methylamino)pyrazolo[1,5-a]pyrimidin-3-yl)azetidin-3-yl)oxy)-N-(5-(trifluoromethyl)pyridin-3-yl)benzamide] has a Ki [1, 3] of less than 5 nM and a Ki [2, 4] of 5 to 25 nM.

In the case of `Cc1ccc(C(=O)Nc2cncc(C(F)(F)F)c2)cc1C(C)C1CN(c2cnn3ccncc23)C1` (centres unmarked) [Example 176, 4-methyl-3-(1-(1-(pyrazolo[1,5-a]pyrazin-3-yl)azetidin-3-yl)ethyl)-N-(5-(trifluoromethyl)pyridin-3-yl)benzamide], the Ki [2, 4] is reported as 5 to 25 nM.

For `Cc1ccc(C(=O)Nc2cncc(C(F)(F)F)c2)cc1OC1CN(c2cncc3c2cnn3C)C1` [Example 169, 4-methyl-3-((1-(1-methyl-1H-pyrazolo[3,4-c]pyridin-4-yl)azetidin-3-yl)oxy)-N-(5-(trifluoromethyl)pyridin-3-yl)benzamide], the Ki [1, 3] was less than 5 nM and the Ki [2, 4] was 5 to 25 nM.

`Cc1ccc(C(=O)Nc2cncc(C(F)(F)F)c2)cc1OC1CN(c2cnn3ccccc23)C1` [Example 168, 4-methyl-3-((1-(pyrazolo[1,5-a]pyridin-3-yl)azetidin-3-yl)oxy)-N-(5-(trifluoromethyl)pyridin-3-yl)benzamide] gave a Ki [1, 3] of less than 5 nM and a Ki [2, 4] of less than 5 nM.

`Cc1ccc(C(=O)Nc2cncc(C(F)(F)F)c2)cc1OC1CN(c2cncc(C(N)=O)c2)C1` [Example 139, 5-(3-(2-methyl-5-((5-(trifluoromethyl)pyridin-3-yl)carbamoyl)phenoxy)azetidin-1-yl)nicotinamide] was tested, and the Ki [2, 4] was 5 to 25 nM.

For `O=C(Nc1cncc(C(F)(F)F)c1)c1ccc(OC(F)F)c(NC2CN(c3cnn4ccncc34)C2)c1` [Example 181, 4-(difluoromethoxy)-3-((1-(pyrazolo[1,5-a]pyrazin-3-yl)azetidin-3-yl)amino)-N-(5-(trifluoromethyl)pyridin-3-yl)benzamide], the Ki [1, 3] was less than 5 nM and the Ki [2, 4] was 5 to 25 nM.

With `Cc1ccc(C(=O)Nc2cncc(C(F)(F)F)c2)cc1C(C)C1CN(c2cnn3ccncc23)C1` (centres unmarked) [Example 175, 4-methyl-3-(1-(1-(pyrazolo[1,5-a]pyrazin-3-yl)azetidin-3-yl)ethyl)-N-(5-(trifluoromethyl)pyridin-3-yl)benzamide] the Ki [2, 4] was 5 to 25 nM.
